US8748407B2 (The Research Foundation for the State University of New York, priority 2010, dated 2014)

Target: T1, GluA2Qflip (Rattus norvegicus, UniProt P19491)
T1 construct: expressed in transfected cells; host or cells: HEK-293S
Experiment: Laser-pulse photolysis of caged glutamate, channel-opening kinetics
Assay type: cell-based
Excerpt: The use of the laser-pulse photolysis technique to measure the channel-opening kinetics has been described^7. […] In the laser-pulse photolysis measurement of channel opening, a single laser pulse at 355 nm with a pulse length of 8 ns was generated from a pulsed Q-switched Nd:YAG laser (Continuum, Santa Clara, Calif.). The pulse energy varied in the range of 200-800 μJ, measured at the end of an optical fiber (300 μm core diameter) into which the laser was coupled. […] The current amplitudes obtained from this calibration were compared with the amplitude from the laser measurement with reference to the dose-response relationship. These measurements also allowed us to monitor any damage to the receptors and/or the cell for successive laser experiments with the same cell^7.
To deliver AG56 to a HEK-293 cell, a “Ψ”-shaped flow device was used. […] In all experiments reported in this study, a 6-second preincubation flow protocol was used for full aptamer preincubation. […] The corrected current amplitude was used for data analysis.
The use of this technique allows the investigation of the effect of AG56 on the channel-opening kinetic mechanism of the GluA2Qflip receptors. Before describing how the mechanism of inhibition is elucidated, the kinetic characterization of channel-opening rate process is presented.
A represents the active form of the receptor, L, the ligand, ALn the closed-channel forms, and ALn the open-channel form, K1 the intrinsic dissociation constant of activating ligand and Φ the channel opening equilibrium constant (Φ^−1=kcl/kop). Based on this mechanism and the assumption that the ligand-binding rate was fast as compared to the channel opening, the observed rate constant of channel opening or kobs can be formulated as in equ. 2.
In equ. 2, kcl is the channel-closing rate constant or the lifetime of the channel, τ (τ=1/kcl), kop is the channel-opening rate constant, and n the number of the ligand molecules to bind to the receptor complex to open the channel (i.e., n=1-4). Imax is the maximum current amplitude, and It is the current amplitude at time t.
The mechanism of inhibition was characterized by studying the effect of an inhibitor such as AG56 on the channel-opening rate process^13,14. In general there are three ways in which an ion channel receptor can be inhibited. For instance, an inhibitor binds only to the open-channel state or conformation and then inhibits it (Mechanism 1, uncompetitive mechanism of inhibition or open-channel blockade). Alternatively, an inhibitor binds to both the closed- and open-channel states through a regulatory site (Mechanism 2, noncompetitive mechanism). The observed rate constant, kobs in the presence and absence of an inhibitor can be measured using equ. 3. […] 4 for mechanism 1, and equ. 5 for mechanism 2.
In deriving these equations, one binding site for inhibitor per receptor molecule is assumed. […] 4 or 5 to the overall rate, kobs, is negligible. Under this condition, the effect of the inhibitor on the kcl can be measured^13. Specifically, for both Mechanisms 1 and 2, the effects of the inhibitor on kcl are the same, and can be obtained by equ. 6, which can be derived from either equ. 4 or 5. From equ. 6, the equilibrium dissociation constant of the inhibitor from the open-channel state, KI, can be determined.
For Mechanism 2 or a noncompetitive mechanism of inhibition, the inhibitor will affect kop additionally (equ. 8), if KI<I, I being the molar concentration used to measure the KI value. Consequently the dissociation constant of the inhibitor for the closed-channel conformation can be further determined for Mechanism 2. It should be emphasized that the presence of an inhibitory effect of a noncompetitive inhibitor is due to the fact that the inhibitor must first bind to the closed-channel conformation, as illustrated in Mechanism 2, shown above. […]

[1] = 100 μM photolytically released glutamate

T1 sequence (P19491 22-883 isoform P19491-2): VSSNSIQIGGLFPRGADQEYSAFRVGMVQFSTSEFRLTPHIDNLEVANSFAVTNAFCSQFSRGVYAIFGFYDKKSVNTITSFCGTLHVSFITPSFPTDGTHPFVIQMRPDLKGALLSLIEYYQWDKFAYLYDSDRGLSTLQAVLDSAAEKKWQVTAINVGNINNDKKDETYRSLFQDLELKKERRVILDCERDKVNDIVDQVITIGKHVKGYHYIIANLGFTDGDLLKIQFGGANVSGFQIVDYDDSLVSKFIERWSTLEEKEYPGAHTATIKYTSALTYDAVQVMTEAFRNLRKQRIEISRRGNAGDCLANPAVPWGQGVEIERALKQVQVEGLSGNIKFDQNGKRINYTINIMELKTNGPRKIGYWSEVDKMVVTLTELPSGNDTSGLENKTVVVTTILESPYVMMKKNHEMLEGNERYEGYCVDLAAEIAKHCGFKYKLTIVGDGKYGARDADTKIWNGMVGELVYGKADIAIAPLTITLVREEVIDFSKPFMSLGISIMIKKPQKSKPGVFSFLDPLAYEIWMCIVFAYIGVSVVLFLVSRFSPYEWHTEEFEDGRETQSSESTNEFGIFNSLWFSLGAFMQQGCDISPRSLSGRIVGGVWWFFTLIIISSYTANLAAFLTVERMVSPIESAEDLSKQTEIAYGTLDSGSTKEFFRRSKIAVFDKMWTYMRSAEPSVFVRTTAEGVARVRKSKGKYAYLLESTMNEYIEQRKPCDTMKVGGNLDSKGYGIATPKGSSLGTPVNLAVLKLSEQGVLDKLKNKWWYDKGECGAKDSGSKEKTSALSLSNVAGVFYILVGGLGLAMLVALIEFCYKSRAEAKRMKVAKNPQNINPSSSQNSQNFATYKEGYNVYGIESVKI

Substance: AG56: 56-nucleotide truncated version of AG1407, RNA aptamer (GGGAGAUUGUGAAGCGUAGGCUCGAGUUUGUCCCGCGAGCCAAAGAUUCCAGACCC; RNA, backbone not given here)
- effect on channel-closing rate (kcl) [1]: inhibited the rate of channel closing
- effect on current amplitude [1]: did not affect the current amplitude
- kobs value, which reflected kcl (100 μM photolytically released glutamate, +0.75 μM AG56 (control 2,200)): 1,600 s^−1
- kobs value, which reflected kop (340 μM photolytically released glutamate, 0.75 μM AG56 (absence 5,128)): 4,405 s^−1
- effect on current amplitude (higher glutamate concentration): reduced the current amplitude
- effect on channel-opening rate constant (kop) (increased glutamate concentration): did not inhibit kop
